Laboratory results reported in patent US6822146B2, “Sulfonylurea-tolerant sunflower line M7” (priority 2000, dated 2004).

What was measured:
[1] = tested on: Homozygous resistant inbred lines, BC3-M4M12 (I), BC3-M4M11 (J) and BC3-M4M7 (K); assay: Test A summary, homozygous resistant inbred lines; conditions: in vivo
Procedure, shortened: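 Field-grown sunflower lines received broadcast post-emergence sulfonylurea herbicides at the 6-leaf stage, at European registered use rates, in four randomized replicates; all but metsulfuron-methyl included Citowet non-ionic surfactant at 0.25% v/v. Peak crop injury was scored visually as % phytotoxicity (0% none, 100% all plants destroyed).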

[2] = tested on: BC4-M5M12 × PHA155 hybrid; assay: Test E injury to sunflower hybrid; format: in vivo
Procedure: Based on the results from Test D, a modified protocol was developed to include three timings of post-emergence treatment. The hybrid BC4-M5M12 (female parent)×PHA155 restorer line (male parent) described in Test C was used in this test. Various herbicide programs were tested using three replications. […] Seed coatings of these formulated herbicides were applied to 6 kg of seeds in such amount that considering the distribution of the coated seeds in each pot, the herbicide active ingredient (a.i.) application rates per hectare were as indicated.
The treatments were applied similar to the methods described for Test D. Pre-emergence applications were broadcast only, not soil incorporated. For pre-emergence application, the pots were sprayed using the high rates of the herbicides two days after sowing the sunflower seeds. Post-emergence treatments were applied at the 4-6 leaf stage of sunflower (corresponding to early stage of Orobanche attachment; identified as “T1”), the 6-8 leaf stage of sunflower (corresponding to the mid stage of Orobanche attachment; nodules <5 mm diameter; identified as “T2”) and 8-12 leaf stage of sunflower (corresponding to late stage of Orobanche attachment; identified as “T3”). The mid-stage applications included the high as well as low application rates of each herbicide.
For comparison were also included in this test other acetolactate synthase-inhibiting herbicides reported in the literature as giving good weed control of Orobanche (L. García-Torres et al., Weed Research 1994, 34, 395-402; L. García-Torres et al., Weed Technology 1995, 9, 819-824; J. Hershenhorn et al., Weed Technology 1998, 12, 108-114).

Stellaria media = assay: Test H weed control, field plots; format: in vivo; conditions: 36 days after treatment; g a.i./ha: tribenuron-methyl 22.5, metsulfuron-methyl 6, ethametsulfuron-methyl 16, imazapyr isopropylamine salt 15, aclonifen 1200
Excerpt: (§1) Field plots (2 m×5 m) were tilled to remove weed cover and then seeded in rows with the following weeds: Capsella bursa pastoris, Atriplex patula, Chenopodium album, Stellaria media, Mecurialis annua, Polygonum persicaria, Amaranthus retroflexus, Polygonum convolvulus, Polygonum aviculare, Viola arvensis, Matricaria inodora, Anagallis arvensis, Sinapis arvensis, Setaria viridis, Solanum nigrum and Echinochloa crusgalli. After 21 days from sowing, at which time the weeds had reached the 2- to 6-leaf stage, herbicide treatments were applied to the plots according to a complete randomized block design, with each herbicide treatment triply replicated. The herbicides were sprayed using standard flat fan nozzles moved perpendicular to the sown lines using water spray volumes of about 296 L/ha.
(§2) Assessments of weed control were made by visual inspection 36 days after herbicide treatment. A visual rating system was used based on a percentage scale from 0 to 100% compared to an adjacent untreated control plot. On this scale 0 represents no visual differences relative to an untreated control and 100 represents complete control of the given weed species.

Chenopodium album = assay: Test H weed control, field plots; format: in vivo; conditions: 36 days after treatment; g a.i./ha: tribenuron-methyl 22.5, metsulfuron-methyl 6, ethametsulfuron-methyl 16, imazapyr isopropylamine salt 15, aclonifen 1200
Excerpt: as §1, §2

[3] = tested on: heterozygous resistant hybrids (C to H); conditions: in vivo
Procedure: In a small field trial, the sunflower varieties described in Table 4 were sprayed post-emergence with a variety of sulfonylurea herbicide treatments.
Broadcast post-emergence applications of formulated sulfonylurea herbicides were performed at the 6-leaf development stage using four randomly distributed replications. Application rates were chosen to match the usual use rates of these herbicides in the crops they are registered in Europe. All herbicides except for metsulfuron-methyl were sprayed in combination with Citowet® non-ionic ethoxylated alcohol at 0.25% volume of formulated product per volume of water applied per hectare.
The evaluation of the maximum (i.e. peak) injury to sunflower varieties by sulfonylurea herbicides was measured by visual ratings, which are listed in Table 5. A rating of 0% phytotoxicity means no crop injury. […] A rating of 100% means the complete destruction of all plants.

Polygonum aviculare = assay: Test H weed control, field plots; format: in vivo; set-up: concentration or dose not given beside the values; conditions: 36 days after treatment; g a.i./ha: tribenuron-methyl 22.5, metsulfuron-methyl 6, ethametsulfuron-methyl 16, imazapyr isopropylamine salt 15, aclonifen 1200
Excerpt: as §1, §2

Viola arvensis = assay: Test H weed control, field plots; format: in vivo; set-up: concentration or dose not given beside the values; conditions: 36 days after treatment; g a.i./ha: tribenuron-methyl 22.5, metsulfuron-methyl 6, ethametsulfuron-methyl 16, imazapyr isopropylamine salt 15, aclonifen 1200
Excerpt: as §1, §2

Capsella bursa pastoris = assay: Test H weed control, field plots; format: in vivo; set-up: concentration or dose not given beside the values; conditions: 36 days after treatment; g a.i./ha: tribenuron-methyl 22.5, metsulfuron-methyl 6, ethametsulfuron-methyl 16, imazapyr isopropylamine salt 15, aclonifen 1200
Excerpt: as §1, §2

Echinochloa crus-galli = assay: Test H weed control, field plots; format: in vivo; set-up: concentration or dose not given beside the values; conditions: 36 days after treatment; g a.i./ha: tribenuron-methyl 22.5, metsulfuron-methyl 6, ethametsulfuron-methyl 16, imazapyr isopropylamine salt 15, aclonifen 1200
Excerpt: as §1, §2

Matricaria inodora = assay: Test H weed control, field plots; format: in vivo; set-up: concentration or dose not given beside the values; conditions: 36 days after treatment; g a.i./ha: tribenuron-methyl 22.5, metsulfuron-methyl 6, ethametsulfuron-methyl 16, imazapyr isopropylamine salt 15, aclonifen 1200
Excerpt: as §1, §2

Atriplex patula = assay: Test H weed control, field plots; format: in vivo; set-up: concentration or dose not given beside the values; conditions: 36 days after treatment; g a.i./ha: tribenuron-methyl 22.5, metsulfuron-methyl 6, ethametsulfuron-methyl 16, imazapyr isopropylamine salt 15, aclonifen 1200
Excerpt: as §1, §2

Setaria viridis = assay: Test H weed control, field plots; format: in vivo; set-up: concentration or dose not given beside the values; conditions: 36 days after treatment; g a.i./ha: tribenuron-methyl 22.5, metsulfuron-methyl 6, ethametsulfuron-methyl 16, imazapyr isopropylamine salt 15, aclonifen 1200
Excerpt: as §1, §2

Anagallis arvensis = assay: Test H weed control, field plots; format: in vivo; set-up: concentration or dose not given beside the values; conditions: 36 days after treatment; g a.i./ha: tribenuron-methyl 22.5, metsulfuron-methyl 6, ethametsulfuron-methyl 16, imazapyr isopropylamine salt 15, aclonifen 1200
Excerpt: as §1, §2

Polygonum persicaria = assay: Test H weed control, field plots; format: in vivo; set-up: concentration or dose not given beside the values; conditions: 36 days after treatment; g a.i./ha: tribenuron-methyl 22.5, metsulfuron-methyl 6, ethametsulfuron-methyl 16, imazapyr isopropylamine salt 15, aclonifen 1200
Excerpt: as §1, §2

Mercurialis annua = assay: Test H weed control, field plots; format: in vivo; set-up: concentration or dose not given beside the values; conditions: 36 days after treatment; g a.i./ha: tribenuron-methyl 22.5, metsulfuron-methyl 6, ethametsulfuron-methyl 16, imazapyr isopropylamine salt 15, aclonifen 1200
Excerpt: as §1, §2

Solanum nigrum = assay: Test H weed control, field plots; format: in vivo; set-up: concentration or dose not given beside the values; conditions: 36 days after treatment; g a.i./ha: tribenuron-methyl 22.5, metsulfuron-methyl 6, ethametsulfuron-methyl 16, imazapyr isopropylamine salt 15, aclonifen 1200
Excerpt: as §1, §2

Amaranthus retroflexus = assay: Test H weed control, field plots; format: in vivo; set-up: concentration or dose not given beside the values; conditions: 36 days after treatment; g a.i./ha: tribenuron-methyl 22.5, metsulfuron-methyl 6, ethametsulfuron-methyl 16, imazapyr isopropylamine salt 15, aclonifen 1200
Excerpt: as §1, §2

Polygonum convolvulus = assay: Test H weed control, field plots; format: in vivo; set-up: concentration or dose not given beside the values; conditions: 36 days after treatment; g a.i./ha: tribenuron-methyl 22.5, metsulfuron-methyl 6, ethametsulfuron-methyl 16, imazapyr isopropylamine salt 15, aclonifen 1200
Excerpt: as §1, §2

Sinapis arvensis = assay: Test H weed control, field plots; format: in vivo; set-up: concentration or dose not given beside the values; conditions: 36 days after treatment; g a.i./ha: tribenuron-methyl 22.5, metsulfuron-methyl 6, ethametsulfuron-methyl 16, imazapyr isopropylamine salt 15, aclonifen 1200
Excerpt: as §1, §2

BC4-M5M12 × PHA155 = assay: Test C field phytotoxicity, BC4-M5M12 × PHA155; format: in vivo, sunflower
Excerpt: A rating of 0% phytotoxicity means no crop injury.

Structure (SMILES)	tolerance of homozygous resistant inbred lines I, J, K [1]	weed control, visual rating: Stellaria media (Stellaria media)	weed control, visual rating: Chenopodium album (Chenopodium album)	tolerance of heterozygous resistant hybrids C to H [3]	weed control, visual rating: Polygonum aviculare (Polygonum aviculare)	weed control, visual rating: Viola arvensis (Viola arvensis)	weed control, visual rating: Capsella bursa pastoris (Capsella bursa pastoris)	weed control, visual rating: Echinochloa crus-galli (Echinochloa crus-galli)	weed control, visual rating: Matricaria inodora (Matricaria inodora)	weed control, visual rating: Atriplex patula (Atriplex patula)	weed control, visual rating: Setaria viridis (Setaria viridis)	weed control, visual rating: Anagallis arvensis (Anagallis arvensis)	weed control, visual rating: Polygonum persicaria (Polygonum persicaria)	weed control, visual rating: Mercurialis annua (Mercurialis annua)	weed control, visual rating: Solanum nigrum (Solanum nigrum)	weed control, visual rating: Amaranthus retroflexus (Amaranthus retroflexus)	weed control, visual rating: Polygonum convolvulus (Polygonum convolvulus)	weed control, visual rating: Sinapis arvensis (Sinapis arvensis)	also measured
COC(=O)c1ccccc1S(=O)(=O)NC(=O)Nc1nc(C)nc(OC)n1 [Metsulfuron-methyl, metsulfuron-methyl]	resistant	100%	100%	as tolerant as the three homozygous resistant lines	100%	100%	100%	47%	100%	100%	47%	100%	100%	100%	97%	99%	92%	100%	sunflower phytotoxicity ([2]; in vivo): more likely to cause sunflower phytotoxicity
COC(=O)c1cccc(C)c1S(=O)(=O)NC(=O)Nc1nc(OCC(F)(F)F)nc(N(C)C)n1 [Triflusulfuron-methyl, triflusulfuron-methyl]	–	–	–	–	–	–	–	–	–	–	–	–	–	–	–	–	–	–	Phytotoxicity Rating After Treatment (BC4-M5M12 × PHA155; postemergence 7.5 g a.i./ha, 7 DAT): 22%; Phytotoxicity Rating After Treatment (BC4-M5M12 × PHA155; postemergence 7.5 g a.i./ha, 15 DAT): 22%; Phytotoxicity Rating After Treatment (BC4-M5M12 × PHA155; postemergence 7.5 g a.i./ha, 30 DAT): 25%; Phytotoxicity Rating After Treatment (BC4-M5M12 × PHA155; postemergence 15 g a.i./ha, 7 DAT): 38%; Phytotoxicity Rating After Treatment (BC4-M5M12 × PHA155; postemergence 15 g a.i./ha, 15 DAT): 45%; Phytotoxicity Rating After Treatment (BC4-M5M12 × PHA155; postemergence 15 g a.i./ha, 30 DAT): 43%; sunflower phytotoxicity ([2]; Test E rates): transitory phytotoxicity symptoms; Injury ([2]; post-emergence 18.75 g a.i./ha at T2): 0%
COC(=O)c1ccccc1S(=O)(=O)NC(=O)N(C)c1nc(C)nc(OC)n1 [Tribenuron-methyl, tribenuron-methyl]	resistant	100%	100%	as tolerant as the three homozygous resistant lines	90%	100%	100%	65%	100%	100%	65%	100%	100%	100%	100%	93%	93%	100%	Phytotoxicity Rating After Treatment (BC4-M5M12 × PHA155; postemergence 11.25 g a.i./ha, 15 DAT): 18%
